Reference: ChEMBL document CHEMBL1147701, “Novel 4-anilinoquinazolines with C-6 carbon-linked side chains: synthesis and structure-activity relationship of a series of potent, orally active, EGF receptor tyrosine kinase inhibitors” (Bioorg Med Chem Lett, 2006)

Key:
[1] = target: T1, Serine/threonine-protein kinase Chk1 (Homo sapiens, UniProt O14757); test: Inhibition of CHK1
T1 sequence (O14757 whole entry): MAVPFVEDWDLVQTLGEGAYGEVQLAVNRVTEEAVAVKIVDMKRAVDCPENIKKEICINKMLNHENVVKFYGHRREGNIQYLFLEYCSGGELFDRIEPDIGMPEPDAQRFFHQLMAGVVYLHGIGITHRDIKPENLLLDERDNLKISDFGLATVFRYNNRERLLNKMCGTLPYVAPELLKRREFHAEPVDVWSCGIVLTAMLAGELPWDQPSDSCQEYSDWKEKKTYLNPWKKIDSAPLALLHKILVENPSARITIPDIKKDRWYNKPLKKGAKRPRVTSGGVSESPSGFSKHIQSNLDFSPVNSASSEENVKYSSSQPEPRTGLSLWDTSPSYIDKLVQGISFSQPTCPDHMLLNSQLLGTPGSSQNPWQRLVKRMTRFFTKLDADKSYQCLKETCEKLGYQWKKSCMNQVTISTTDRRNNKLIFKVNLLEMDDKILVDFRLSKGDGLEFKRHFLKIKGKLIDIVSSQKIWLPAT

[2] = target: Mitogen-activated protein kinase 1 (Homo sapiens, UniProt P28482); test: Inhibition of MAPK
Mitogen-activated protein kinase 1, sequence (P28482 whole entry): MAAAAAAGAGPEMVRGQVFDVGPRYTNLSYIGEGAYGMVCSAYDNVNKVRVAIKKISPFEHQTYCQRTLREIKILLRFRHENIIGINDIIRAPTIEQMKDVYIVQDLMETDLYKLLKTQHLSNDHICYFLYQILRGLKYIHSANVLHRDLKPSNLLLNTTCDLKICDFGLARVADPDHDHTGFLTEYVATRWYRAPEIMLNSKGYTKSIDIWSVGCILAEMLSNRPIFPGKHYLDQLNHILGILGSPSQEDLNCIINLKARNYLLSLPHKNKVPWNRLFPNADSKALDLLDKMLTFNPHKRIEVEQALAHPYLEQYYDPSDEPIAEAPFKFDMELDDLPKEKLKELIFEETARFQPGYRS

[3] = target: Glycogen synthase kinase-3 beta (Homo sapiens, UniProt P49841); test: Inhibition of GSK3-beta
Glycogen synthase kinase-3 beta, sequence (P49841 whole entry): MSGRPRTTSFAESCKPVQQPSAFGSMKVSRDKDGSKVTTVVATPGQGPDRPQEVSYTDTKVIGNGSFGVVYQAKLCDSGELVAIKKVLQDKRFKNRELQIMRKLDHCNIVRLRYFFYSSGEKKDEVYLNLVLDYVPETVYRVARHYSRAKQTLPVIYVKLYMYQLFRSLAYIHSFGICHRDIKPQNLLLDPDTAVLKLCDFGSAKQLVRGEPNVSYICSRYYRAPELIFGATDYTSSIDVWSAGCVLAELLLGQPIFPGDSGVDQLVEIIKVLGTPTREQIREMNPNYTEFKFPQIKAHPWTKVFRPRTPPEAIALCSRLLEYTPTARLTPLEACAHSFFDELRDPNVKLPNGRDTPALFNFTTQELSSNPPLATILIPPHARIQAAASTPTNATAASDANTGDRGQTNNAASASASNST

[4] = target: cAMP-dependent protein kinase (PKA) (Homo sapiens, UniProt P22694+P17612+P22612); test: Inhibition of PKA; assay type: protein assay
[5] = target: c-Jun N-terminal kinase, JNK (Homo sapiens, UniProt P45983+P53779+P45984); test: Inhibition of JNK; assay type: protein assay
[6] = target: T2, Serine/threonine-protein kinase Sgk1 (Homo sapiens, UniProt O00141); test: Inhibition of SGK
T2 sequence (O00141 whole entry): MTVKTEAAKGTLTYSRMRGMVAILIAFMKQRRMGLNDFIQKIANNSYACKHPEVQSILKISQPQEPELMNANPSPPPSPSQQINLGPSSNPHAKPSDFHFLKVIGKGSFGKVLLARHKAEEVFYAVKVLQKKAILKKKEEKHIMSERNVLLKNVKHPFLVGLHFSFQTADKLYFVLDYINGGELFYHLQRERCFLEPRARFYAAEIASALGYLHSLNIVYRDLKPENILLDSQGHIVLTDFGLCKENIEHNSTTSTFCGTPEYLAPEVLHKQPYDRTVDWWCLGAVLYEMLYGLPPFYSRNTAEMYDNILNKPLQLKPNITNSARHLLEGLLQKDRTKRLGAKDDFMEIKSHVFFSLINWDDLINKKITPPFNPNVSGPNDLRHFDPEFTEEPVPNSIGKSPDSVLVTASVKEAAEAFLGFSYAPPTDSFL

[7] = target: AMP-activated protein kinase, AMPK; test: Inhibition of AMPK; assay type: protein-complex assay
[8] = target: Rho-associated protein kinase 2 (Homo sapiens, UniProt O75116); test: Inhibition of ROCK2
Rho-associated protein kinase 2, sequence (O75116 whole entry): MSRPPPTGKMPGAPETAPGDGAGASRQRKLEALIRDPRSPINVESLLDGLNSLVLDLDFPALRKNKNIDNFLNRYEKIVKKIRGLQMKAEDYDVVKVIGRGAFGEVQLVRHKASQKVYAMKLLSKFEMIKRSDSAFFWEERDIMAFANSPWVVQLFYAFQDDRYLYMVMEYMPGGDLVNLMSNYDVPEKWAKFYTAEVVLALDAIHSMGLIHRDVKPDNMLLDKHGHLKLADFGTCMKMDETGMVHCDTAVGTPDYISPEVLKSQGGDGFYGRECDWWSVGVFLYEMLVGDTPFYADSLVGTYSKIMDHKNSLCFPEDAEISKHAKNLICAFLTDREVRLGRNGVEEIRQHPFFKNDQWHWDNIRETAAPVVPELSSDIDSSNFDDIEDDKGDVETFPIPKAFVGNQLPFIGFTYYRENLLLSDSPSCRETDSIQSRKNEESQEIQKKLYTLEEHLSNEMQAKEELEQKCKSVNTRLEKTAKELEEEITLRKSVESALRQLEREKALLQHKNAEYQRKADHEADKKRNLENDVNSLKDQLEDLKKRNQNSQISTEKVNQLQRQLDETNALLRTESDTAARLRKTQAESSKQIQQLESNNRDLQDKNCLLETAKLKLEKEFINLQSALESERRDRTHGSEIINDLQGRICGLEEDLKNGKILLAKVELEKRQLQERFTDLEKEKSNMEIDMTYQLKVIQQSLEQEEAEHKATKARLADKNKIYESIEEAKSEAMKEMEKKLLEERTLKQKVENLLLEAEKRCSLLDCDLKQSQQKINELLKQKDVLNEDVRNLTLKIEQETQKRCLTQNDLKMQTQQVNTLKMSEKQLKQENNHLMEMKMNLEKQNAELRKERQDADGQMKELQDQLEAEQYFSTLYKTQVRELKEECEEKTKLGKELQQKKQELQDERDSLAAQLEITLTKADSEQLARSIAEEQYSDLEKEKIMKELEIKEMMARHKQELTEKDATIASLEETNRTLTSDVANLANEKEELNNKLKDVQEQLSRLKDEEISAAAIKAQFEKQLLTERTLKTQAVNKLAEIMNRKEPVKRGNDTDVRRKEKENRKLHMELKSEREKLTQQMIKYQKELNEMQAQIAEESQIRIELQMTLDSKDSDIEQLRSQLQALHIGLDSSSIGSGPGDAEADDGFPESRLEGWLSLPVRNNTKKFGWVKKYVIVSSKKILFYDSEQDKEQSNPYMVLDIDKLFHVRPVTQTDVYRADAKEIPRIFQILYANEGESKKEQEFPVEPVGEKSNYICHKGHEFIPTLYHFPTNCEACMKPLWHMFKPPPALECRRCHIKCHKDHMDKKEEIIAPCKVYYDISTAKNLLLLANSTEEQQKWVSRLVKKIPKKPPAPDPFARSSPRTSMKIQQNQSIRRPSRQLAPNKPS

[9] = target: Vascular endothelial growth factor receptor 2 (Homo sapiens, UniProt P35968)
Vascular endothelial growth factor receptor 2, sequence (P35968 whole entry): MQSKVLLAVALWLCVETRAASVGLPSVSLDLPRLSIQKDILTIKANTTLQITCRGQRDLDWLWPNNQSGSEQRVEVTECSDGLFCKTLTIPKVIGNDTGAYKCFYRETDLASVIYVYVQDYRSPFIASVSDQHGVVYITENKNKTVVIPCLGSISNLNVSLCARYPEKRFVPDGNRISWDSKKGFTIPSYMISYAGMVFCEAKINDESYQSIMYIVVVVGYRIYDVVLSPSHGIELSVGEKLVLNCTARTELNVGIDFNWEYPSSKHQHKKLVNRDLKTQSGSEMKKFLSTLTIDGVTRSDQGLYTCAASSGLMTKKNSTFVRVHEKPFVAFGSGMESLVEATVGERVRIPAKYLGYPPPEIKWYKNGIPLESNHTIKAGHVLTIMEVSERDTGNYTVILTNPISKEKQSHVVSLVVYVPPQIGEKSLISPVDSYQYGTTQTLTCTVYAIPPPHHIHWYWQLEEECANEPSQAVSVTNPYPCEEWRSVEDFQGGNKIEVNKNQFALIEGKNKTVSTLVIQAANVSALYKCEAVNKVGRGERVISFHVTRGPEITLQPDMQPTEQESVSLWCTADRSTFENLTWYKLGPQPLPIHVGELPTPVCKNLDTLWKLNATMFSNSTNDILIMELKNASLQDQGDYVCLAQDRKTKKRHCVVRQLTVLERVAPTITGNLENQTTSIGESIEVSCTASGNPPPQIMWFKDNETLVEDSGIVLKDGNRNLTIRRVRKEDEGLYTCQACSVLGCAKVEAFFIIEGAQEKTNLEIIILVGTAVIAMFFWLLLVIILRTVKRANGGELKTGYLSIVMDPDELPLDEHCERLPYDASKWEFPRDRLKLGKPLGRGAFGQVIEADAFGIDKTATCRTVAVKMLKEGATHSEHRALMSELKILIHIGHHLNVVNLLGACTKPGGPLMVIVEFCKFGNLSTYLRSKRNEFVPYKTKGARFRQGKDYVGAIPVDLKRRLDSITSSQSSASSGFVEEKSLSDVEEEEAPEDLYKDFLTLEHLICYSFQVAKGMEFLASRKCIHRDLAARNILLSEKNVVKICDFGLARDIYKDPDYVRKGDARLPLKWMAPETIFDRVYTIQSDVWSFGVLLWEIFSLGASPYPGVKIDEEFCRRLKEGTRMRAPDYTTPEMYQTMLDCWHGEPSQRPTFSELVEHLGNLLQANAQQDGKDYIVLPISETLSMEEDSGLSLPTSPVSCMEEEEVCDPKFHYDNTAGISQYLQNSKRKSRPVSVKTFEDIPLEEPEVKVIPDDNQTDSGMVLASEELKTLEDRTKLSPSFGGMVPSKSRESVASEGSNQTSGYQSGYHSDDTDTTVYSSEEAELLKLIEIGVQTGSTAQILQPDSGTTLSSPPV

[10] = target: Proto-oncogene tyrosine-protein kinase Src (Homo sapiens, UniProt P12931); test: Inhibition of Src
Proto-oncogene tyrosine-protein kinase Src, sequence (P12931 2-536 limits assumed): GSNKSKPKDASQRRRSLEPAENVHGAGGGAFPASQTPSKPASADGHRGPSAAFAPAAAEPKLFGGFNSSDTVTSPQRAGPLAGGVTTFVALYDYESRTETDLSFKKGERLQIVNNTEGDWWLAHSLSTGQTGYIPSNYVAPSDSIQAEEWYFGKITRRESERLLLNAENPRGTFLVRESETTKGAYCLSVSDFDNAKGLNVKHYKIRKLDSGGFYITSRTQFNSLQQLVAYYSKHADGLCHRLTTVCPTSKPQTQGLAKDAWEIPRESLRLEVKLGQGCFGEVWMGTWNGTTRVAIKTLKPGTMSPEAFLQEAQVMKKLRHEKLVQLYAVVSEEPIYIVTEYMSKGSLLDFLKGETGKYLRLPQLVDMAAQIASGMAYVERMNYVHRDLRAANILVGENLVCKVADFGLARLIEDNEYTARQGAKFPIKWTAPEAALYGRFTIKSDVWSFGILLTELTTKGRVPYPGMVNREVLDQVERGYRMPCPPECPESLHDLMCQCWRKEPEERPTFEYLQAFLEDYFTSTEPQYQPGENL

[11] = target: Tyrosine-protein kinase Lck (Homo sapiens, UniProt P06239)
Tyrosine-protein kinase Lck, sequence (P06239 whole entry): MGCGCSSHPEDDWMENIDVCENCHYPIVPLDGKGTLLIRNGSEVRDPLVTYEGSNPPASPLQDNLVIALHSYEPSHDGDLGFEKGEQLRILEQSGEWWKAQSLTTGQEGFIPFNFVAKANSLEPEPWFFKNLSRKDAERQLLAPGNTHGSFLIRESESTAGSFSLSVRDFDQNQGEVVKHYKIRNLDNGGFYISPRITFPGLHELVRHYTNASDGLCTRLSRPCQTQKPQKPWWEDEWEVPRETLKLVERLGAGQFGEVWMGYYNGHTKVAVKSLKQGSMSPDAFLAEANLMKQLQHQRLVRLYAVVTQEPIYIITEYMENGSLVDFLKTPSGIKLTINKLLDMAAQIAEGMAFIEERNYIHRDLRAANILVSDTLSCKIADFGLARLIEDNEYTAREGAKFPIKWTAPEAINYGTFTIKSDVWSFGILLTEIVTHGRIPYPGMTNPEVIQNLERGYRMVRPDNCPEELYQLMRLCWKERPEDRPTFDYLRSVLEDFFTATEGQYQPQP

Measured: IC50

COc1cc2ncnc(Nc3cccc(Cl)c3F)c2cc1CN(C)[C@H](C)C(=O)N(C)C
> 10 µM: [1] | [2] | [3] | [4] | [5] | [6] | [7] | [8] | [9] | [10]

COCCN(Cc1cc2c(Nc3cccc(Cl)c3F)ncnc2cc1OC)[C@@H](C)C(N)=O
> 10 µM: [1] | [2] | [3] | [11] | [4] | [5] | [6] | [7] | [8] | [9] | [10]

COc1cc2ncnc(Nc3cccc(Cl)c3F)c2cc1CN1CCCC1
> 10 µM: [1] | [2] | [3] | [11] | [4] | [5] | [6] | [7] | [8] | [9] | [10]

COc1cc2ncnc(Nc3cccc(Cl)c3F)c2cc1CN1CCOCC1C(N)=O (configuration not stated)
> 10 µM: [1] | [2] | [3] | [11] | [4] | [5] | [6] | [7] | [8] | [9] | [10]

COc1cc2ncnc(Nc3cccc(Cl)c3F)c2cc1CN1C[C@H](OC)C[C@@H]1C(N)=O
> 10 µM: [1] | [2] | [3] | [5] | [6] | [7] | [8] | [9] | [10]

COc1cc2ncnc(Nc3cccc(Cl)c3F)c2cc1CN1CC(C(N)=O)C1
> 10 µM: [1] | [2] | [3] | [4] | [5] | [6] | [7] | [8] | [9] | [10]

COc1cc2ncnc(Nc3cccc(Cl)c3F)c2cc1CN1CCC[C@@H]1C(=O)N(C)C
> 10 µM: [1] | [2] | [3] | [4] | [5] | [6] | [7] | [8] | [9] | [10]

COc1cc2ncnc(Nc3cccc(Cl)c3F)c2cc1CN1CC[C@H](C(N)=O)C1
> 10 µM: [1] | [2] | [3] | [11] | [5] | [6] | [7] | [8] | [9] | [10]
